Among the data in patent publication EP4596536A1 (Shanghai de Novo Pharmatech Co., Ltd., priority 2022, dated 2024) are EC50 values, retold here.

In this assay the target is T1, TLR8 (Homo sapiens, UniProt Q9NR97).
T1 construct: host or cells: HEK293 (HEK-BLUE-hTLR8)
T1 sequence (Q9NR97 27-1041): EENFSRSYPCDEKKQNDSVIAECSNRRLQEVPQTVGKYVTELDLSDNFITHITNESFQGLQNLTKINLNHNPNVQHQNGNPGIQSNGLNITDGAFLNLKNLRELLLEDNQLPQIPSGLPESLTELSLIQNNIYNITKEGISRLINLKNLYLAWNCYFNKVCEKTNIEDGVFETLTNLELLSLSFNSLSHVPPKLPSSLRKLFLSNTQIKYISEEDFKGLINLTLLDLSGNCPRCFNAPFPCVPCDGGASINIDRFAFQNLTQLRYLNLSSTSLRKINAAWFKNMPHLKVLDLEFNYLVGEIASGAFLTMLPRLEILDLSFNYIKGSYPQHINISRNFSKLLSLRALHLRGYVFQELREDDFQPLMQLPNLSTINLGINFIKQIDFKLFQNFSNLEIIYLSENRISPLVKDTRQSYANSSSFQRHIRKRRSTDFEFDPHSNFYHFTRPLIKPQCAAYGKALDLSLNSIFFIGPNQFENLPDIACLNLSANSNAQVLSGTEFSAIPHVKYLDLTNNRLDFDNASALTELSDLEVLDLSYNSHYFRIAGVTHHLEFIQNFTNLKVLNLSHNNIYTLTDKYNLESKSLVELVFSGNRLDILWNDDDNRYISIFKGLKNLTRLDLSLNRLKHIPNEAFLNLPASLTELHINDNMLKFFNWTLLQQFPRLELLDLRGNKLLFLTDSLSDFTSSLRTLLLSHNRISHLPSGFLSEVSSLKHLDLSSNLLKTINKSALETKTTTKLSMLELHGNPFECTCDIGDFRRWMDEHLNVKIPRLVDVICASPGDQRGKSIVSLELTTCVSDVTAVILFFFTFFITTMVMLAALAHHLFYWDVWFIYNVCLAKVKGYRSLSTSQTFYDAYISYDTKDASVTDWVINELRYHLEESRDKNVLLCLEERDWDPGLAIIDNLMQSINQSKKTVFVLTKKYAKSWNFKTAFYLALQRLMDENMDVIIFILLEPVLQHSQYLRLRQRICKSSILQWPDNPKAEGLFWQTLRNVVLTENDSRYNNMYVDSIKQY
Nature of the assay: HEK-BLUE-hTLR8 cell SEAP reporter assay (Quanti-Blue). In kind it is cell-based. The following applies: HEK-BLUE-hTLR8 cells, 0.5 nM to 15 µM, 24 hours. As to the method:
In this experiment, the biological activity of TLR7 and TLR8 in the compound of formula I was detected using cell tests. This method was conducted in human embryonic kidney cells (HEK293) expressing TLR family members such as TLR4, TLR7, TLR8 or TLR9. TLR agonists activate TLRs, triggering the activation of downstream NF-kB, which in turn activates the secreted embryonic alkaline phosphatase (SEAP) reporter gene. The activity of SEAP was detected using the Quanti-Blue (InvivoGen) reagent, thereby reflecting the activities of TLR7 and TLR8 agonists.
The detailed experimental method was as follows: HEK-BLUE-hTLR7 and HEK-BLUE-hTLR8 cell lines were purchased from Invivogen Company and cultured in DMEM medium containing 4.5 g/L glucose (Sigma-Aldrich) and 10% fetal bovine serum under the conditions of temperature 37°C, humidity 95% and 5% CO2.
The compound was tested at a concentration ranging from 0.5 nM to 15 µM over a total of 10 concentration gradients. TLR7 or TLR8 agonists with known activity were added as positive controls, and 1 µL of DMSO was added as a negative control.
The cells were treated as follows: the cells were removed from the culture dish and centrifuged to remove the medium, and resuspended in a T-150 bottle with 10 mL of preheated PBS, 12 mL of preheated medium was added, and the cells were gently pipetted up and down and counted under a microscope. A 200,000/mL single-cell suspension was immediately prepared with medium and added to a 96-well plate at 200 µL/well (40,000/well). The final concentration of DMSO was 0.5%.
The compound was added and incubated in an incubator at 37°C, 5% CO2 for 24 hours.
A supernatant at 20 µL/well was aspirated into 180 µL of preheated Quanti-Blue at 37°C, incubated at 37°C for 1.5 hours, and detected for the absorbance (OD value) with a spectrophotometer at 650 nm. The formula for calculating the agonistic effect is as follows:
Effect % = (average OD value of the drug-administered group - average OD value of the DMSO group) / (average OD value of the positive drug group - average OD value of the DMSO group) × 100
Graphpad software was used to fit the concentration-effect curve, and EC50 was calculated. The test results are shown in Table 15 (A denotes < 250 nM, B denotes 250 nM-1 µM, C denotes 1 µM-2 µM, D denotes > 2 µM, and - denotes not listed or not tested): Table 15
As to `CCCN(CCO)C(=O)C1=Cc2ccc(C3(C(=O)Nc4cnc5c(c4)CN(C(=O)C4COC(CN6C(=O)C=CC6=O)OC4)CC5)CC3)cc2N=C(N)C1` (single isomer, unassigned) [II-77, 2-amino-8-(1-((6-(2-((2,5-dioxo-2,5-dihydro-1H-pyrrol-1-yl)methyl)-1,3-dioxan-5-carbonyl)-5,6,7,8-tetrahydro-1,6-naphthyridin-3-yl)carbamoyl)cyclopropyl)-N-(2-hydroxyethyl)-N-propyl-3H-benzo[b]azepine-4-formamide], the EC50 (usually the concentration needed to bring the measured effect to its halfway point) was 250 to 1000 nM.

Compound `CCCN(CCO)C(=O)C1=Cc2ccc(C3(C(=O)Nc4cnc5c(c4)CN(C(=O)OCc4ccc(O[C@@H]6O[C@H](C(=O)O)[C@@H](O)[C@H](O)[C@H]6O)c(NC(=O)CNC(=O)CCCCCN6C(=O)C=CC6=O)c4)CC5)CC3)cc2N=C(N)C1` [II-36, (2S,3S,4S,5R,6S)-6-(4-(((3-(1-(2-amino-4-((2-hydroxyethyl)(propyl)carbamoyl)-3H-benzo[b]azepin-8-yl)cyclopropyl-1-formylamino)-5,6,7,8-tetrahydro-1,6-naphthyridine-6-carbonyl)oxy)methyl)-2-(2-(6-(2,5-dioxo-2,5-dihydro-1H-pyrrol-1-yl)hexanoylamino)acetylamino)phenoxy)-3,4,5-trihydroxytetrahydro-2H-pyran-2-carboxylic acid] yielded a concentration for a half-maximal effect (EC50) of less than 250 nM.

`CCCN(CCO)C(=O)C1=Cc2c(F)cc(C3(C(=O)Nc4cncc(CNC(=O)CNC(=O)CCOCCOCCNC(=O)CN5C(=O)C=CC5=O)c4)CC3)cc2N=C(N)C1` [II-64, 2-amino-8-(1-((5-(17-(2,5-dioxo-2,5-dihydro-1H-pyrrol-1-yl)-3,6,16-trioxo-9,12-dioxa-2,5,15-triazaheptadecyl)pyridin-3-yl)carbamoyl)cyclopropyl)-N-(2-hydroxyethyl)-6-fluoro-N-propyl-3H-benzo[b]azepine-4-formamide] registered an EC50 of 250 to 1000 nM.

Turning to `CCCN(CCO)C(=O)C1=Cc2ccc(C3(C(=O)Nc4cnc5c(c4)CN(C(=O)CCOCCOCCNC(=O)CN4C(=O)C=CC4=O)CC5)CC3)cc2N=C(N)C1` [II-23, 2-amino-8-(1-((6-(3-(2-(2-(2-(2,5-dioxo-2,5-dihydro-1H-pyrrol-1-yl)acetylamino)ethoxy)ethoxy)propionyl)-5,6,7,8-tetrahydro-1,6-naphthyridin-3-yl)carbamoyl)cyclopropyl)-N-(2-hydroxyethyl)-N-propyl-3H-benzo[b]azepine-4-formamide], the EC50 is less than 250 nM.

Turning to “(S)-1-((1-(3-(1-(2-amino-4-((2-hydroxyethyl)(propyl)carbamoyl)-3H-benzo[b]azepin-8-yl)cyclopropyl-1-amido)-7,8-dihydro-1,6-naphthyridin-6(5H)-yl)-1-oxo-5-ureidopentan-2-yl)carbamoylamino)cyclobutyl-1-carboxylic acid [Example 35]”, the EC50 is 250 to 1000 nM.

As for `CCCN(CCO)C(=O)C1=Cc2ccc(C3(C(=O)Nc4cnc5c(c4)CN(C(=O)CCOCCOCCOCCOCCOCCOCCNC(=O)CCN4C(=O)C=CC4=O)CC5)CC3)cc2N=C(N)C1` [II-12, 2-amino-8-(1-((6-(1-(2,5-dioxo-2,5-dihydro-1H-pyrrol-1-yl)-3-oxo-7,10,13,16,19,22-hexaoxa-4-azapentacosan-25-acyl)-5,6,7,8-tetrahydro-1,6-naphthyridin-3-yl)carbamoyl)cyclopropyl)-N-(2-hydroxyethyl)-N-propyl-3H-benzo[b]azepine-4-formamide], the half-maximal effective concentration (EC50) was 250 to 1000 nM.

`CCCN(CCO)C(=O)C1=Cc2ccc(C3(C(=O)Nc4cnc5c(c4)CN(C(=O)CNC(=O)[C@H](Cc4ccccc4)NC(=O)CNC(=O)CNC(=O)CCCCCN4C(=O)C=CC4=O)CC5)CC3)cc2N=C(N)C1` registered an EC50 of 250 to 1000 nM.

`CCCN(CCO)C(=O)C1=Cc2ccc(C3(C(=O)Nc4cnc5c(c4)CN(C(=O)[C@H](CCCNC(N)=O)NC(=O)[C@@H](N)C(C)C)CC5)CC3)cc2N=C(N)C1` [Example 33, 2-amino-8-(1-((6-((S)-2-((S)-2-amino-3-methylbutanoylamino)-5-ureidopentanoyl)-5,6,7,8-tetrahydro-1,6-naphthyridin-3-yl)carbamoyl)cyclopropyl)-N-(2-hydroxyethyl)-N-propyl-3H-benzo[b]azepine-4-formamide] showed an EC50 of less than 250 nM.

In turn, `CCCN(CCO)C(=O)C1=Cc2ccc(C3(C(=O)Nc4cnc5c(c4)CN(C(=O)CCOCCOCCNC(=O)CCN4C(=O)C=CC4=O)CC5)CC3)cc2N=C(N)C1` [II-7, 2-amino-8-(1-((6-(3-(2-(2-(3-(2,5-dioxo-2,5-dihydro-1H-pyrrol-1-yl)propionylamino)ethoxy)ethoxy)propionyl)-5,6,7,8-tetrahydro-1,6-naphthyridin-3-yl)carbamoyl)cyclopropyl)-N-(2-hydroxyethyl)-N-propyl-3H-benzo[b]azepine-4-formamide] came in with an EC50 of 250 to 1000 nM.

`CCCN(CCO)C(=O)C1=Cc2ccc(C3(C(=O)Nc4cnc5c(c4)CN(C(=O)CCOCCOCCNC(=O)OCc4ccc(NC(=O)[C@H](CCCNC(N)=O)NC(=O)[C@@H](NC(=O)CCCCCN6C(=O)C=CC6=O)C(C)C)cc4)CC5)CC3)cc2N=C(N)C1` [II-104] registered an EC50 of 250 to 1000 nM.

Turning to `CCCN(CCO)C(=O)C1=Cc2ccc(C3(C(=O)Nc4cnc5c(c4)CN(C(=O)[C@H](CCCNC(N)=O)NC(=O)[C@@H](NC(=O)CCCCCN4C(=O)C=CC4=O)C(C)C)CC5)CC3)cc2N=C(N)C1` [II-19, 2-amino-8-(1-((6-((S)-2-((S)-2-(6-(2,5-dioxo-2,5-dihydro-1H-pyrrol-1-yl)hexanoylamino)-3-methylbutanoylamino)-5-ureidopentanoyl)-5,6,7,8-tetrahydro-1,6-naphthyridin-3-yl)carbamoyl)cyclopropyl)-N-(2-hydroxyethyl)-N-propyl-3H-benzo[b]azepine-4-formamide], the EC50 was 250 to 1000 nM.

Compound `CCCN(CCO)C(=O)C1=Cc2ccc(C3(C(=O)Nc4cnc5c(c4)CN(C(=O)OCc4ccc(NC(=O)[C@H](CCCNC(N)=O)NC(=O)[C@@H](NC(=O)Cc6ccc(N7C(=O)C=CC7=O)cc6)C(C)C)cc4)CC5)CC3)cc2N=C(N)C1` [II-97] came in with an EC50 of 250 to 1000 nM.

Regarding `CCCN(CCO)C(=O)C1=Cc2ccc(C3(C(=O)Nc4cnc5c(c4)CN(C(=O)OCc4ccc(NC(=O)[C@H](CC(N)=O)NC(=O)[C@H](C)NC(=O)[C@H](C)NC(=O)CCCCCN6C(=O)C=CC6=O)cc4)CC5)CC3)cc2N=C(N)C1` [II-96], the EC50 lay in the range of 250 to 1000 nM.

`CCCN(OCC)C(=O)C1=Cc2ccc(C3(C(=O)Nc4cnc5c(c4)CNCC5)CC3)cc2N=C(N)C1` [Compound 23, 2-amino-N-ethoxy-N-propyl-8-(1-((5,6,7,8-tetrahydro-1,6-naphthyridin-3-yl)carbamoyl)cyclopropyl)-3H-benzo[b]azepine-4-formamide] gave an EC50 of less than 250 nM.
